Laboratory results from patent US10925858B2, “S-nitrosoglutathione (GSNO) and GSNO reductase inhibitors for use in therapy” (MUSC FOUNDATION FOR RESEARCH DEVELOPMENT, priority 2017, dated 2021).

Tested on: cell adhesion molecules (ICAM-1 and VCAM-1)
Test: Real-time PCR, mRNA expression of cell adhesion molecules in diabetic mice
Format: in vivo
Settings: cortex and hippocampus, GSNO supplemented diabetic animals
Method: Male laca mice weighing between 28-32 g were procured from the Central Animal House, Panjab University, Chandigarh. The animals were acclimatized and were fed with standard pellet diet and water ad libitum. The experimental protocols were approved by the Institutional Ethics Committee and were conducted according to Indian National Science Academy (INSA) guidelines for the use and care of experimental animals. […] Animals were assessed weekly for development of diabetic encephalopathy in terms of memory deficits. […]
PCR Total RNA was extracted from microvessels obtained from brain tissue using TriReagent®. […] The concentration of RNA obtained was determined by 260/280 nm ratio using a Nanodrop™ Spectrophotometer (Nanodrop™ 1000, Thermo Scientific®, Waltham, USA). The integrity and overall quality of RNA was evaluated using agarose gel electrophoresis. […] The data obtained was analyzed by the LightCycler 480 Software, Version 1.5. […] Glyceraldehyde-3-phosphate dehydrogenase was used as the reference gene and the relative gene expression was determined using delta-delta Ct method as described by Pfaffl et al., (2002).

N[C@@H](CCC(=O)N[C@@H](CSN=O)C(=O)NCC(=O)O)C(=O)O [GSNO, S-nitrosoglutathione]
mRNA expression of ICAM-1: comparable to control levels
